US20180318199A1, “Pharmaceutical Composition Having Anti-Aging Properties against High-Glucose” (TAIWAN LEADER BIOTECH CORP., priority 2017, published 2018)
Entries after “also recorded” stand apart in the source; their conditions may differ.

Columns and labels:
Assay type in all cases: cell-based, human
[1] = test system: pRb, cyclin D1, cyclin E, cyclin B1, CDK4, CDK6, CDK2 and Cdc2; experiment: Western blot of cell-cycle regulatory proteins in HNDFs; conditions: 72 h; for cyclin D1, CDK4, CDK6, cyclin E and CDK2 protein levels under HG: ANM 10 μM or NAC 100 μM + HG 30 mM
Experimental: To further clarify this effect, G1-S transition regulatory proteins are determined by immunoblotting. In FIG. 3B, western blot analysis is performed to determine the expression levels of cell-cycle regulatory proteins including, pRb, cyclin D1, cyclin E, cyclin B1, CDK4, CDK6, CDK2 and Cdc2; and GAPDH is served as an internal control.
(§1) Cells are lysed by either RIPA lysis buffer or nuclear and cytoplasmic extraction reagents (Thermo Fisher Scientific). Protein concentrations are determined by Bio-Rad protein assay reagent (Bio-Rad Laboratories, Hercules, Calif.). Equal amounts of protein samples (60 μg) are separated by 7-12% SDS-PAGE and the separated proteins are transferred onto polyvinylidene […] (PVDC) membrane overnight. The transferred protein membranes are blocked with 5% non-fat dried milk for 30 min, followed by incubation with specific primary antibodies overnight, and either horseradish peroxidase-conjugated goat anti-rabbit or anti-mouse antibodies for 2 h. The blots are detected using VL Chemi-Smart 3000 (Viogene Biotek, Sunnyvale, Calif.) with the enhanced chemiluminescence (ECL) western blotting reagent (Millipore, Billerica, Mass.).

Keap-1 = Keap-1 protein level and ubiquitination (western blot, immunoprecipitation) in HNDFs; conditions: for ubiquitination of total protein: HNDFs treated with ANM or NAC
Experimental: Under normal physiological condition, Nrf2 is sequestered in the cytoplasm, where it associated with Keap-1, an actin-binding protein. Upon chemical treatment or oxidative stress conditions, the steady-state levels of Keap-1 is rapidly degraded through the ubiquitin-dependent proteasome pathway, which eventually causes Nrf2 accumulation and transcriptional activity. […] In FIG. 5H, the Keap-1 protein expression level is determined by western blotting.
In FIG. 5I, effect of ANM on ubiquitination of Keap-1 is examined. Equivalent amount of proteins are immune-precipitated with Keap-1 antibody and visualized by western blotting with ubiquitin antibody. […] Results are expressed as mean±S.E.M of three independent experiments. Statistical significance is set at ^ϕP<0.05 as compared to NG vs. HG or ANM alone or NAC alone and *P<0.05 as compared to HG vs. samples. […] Therefore, it is further examined whether AKT and ERK1/2 have any influence on Keap-1 ubiquitination. Cells are co-incubated with AKT, p38MAPK, JNK and ERK1/2 inhibitors in the presence of […]; and the Keap-1 ubiquitination is examined.
HNDFs are seeded at a density of 1×10^6 cells/dish in 10 cm dish and treated with ANM or pharmacological inhibitors of AKT, JNK/SAPK, p38 MAPK and ERK1/2 in the presence or absence of HG. After treatment, cells are lysed with RIPA buffer containing protease inhibitor cocktail. The lysates are homogenized and centrifuged at 16,000×g for 15 min at 4° C. The supernatant is collected and the protein concentration is determined by Bio-Rad protein assay reagent. Total protein extract containing 500 μg of proteins are precleared with protein-A agarose beads for 1 h and incubated with 3 μg of anti-Keap-1 antibody for overnight at 4° C. with gently shake. After overnight incubation, centrifuged at 2000×g for 5 min at 4° C., the supernatant is discarded and the reaming pellet is washed with RIPA buffer. Immunoprecipitated complexes are mixed with SDS sample buffer and denatured at 94° C. for 5 min. Equal amount of protein samples are subjected to western blotting. The ubiquitinated Keap-1 protein levels are determined by ubiquitin antibody.

HNDFs = experiment: Trypan blue exclusion cell proliferation assay in HNDFs; conditions: 72 h
Experimental: To further clarify the effect of antcins, HG-induced reduction in cell proliferation is determined. In FIG. 2D, to determine the effect of antcins on cell proliferation efficacy, 5×10^4 cells/well of HNDFs are incubated with antcins in 6-well plates in the presence of HG (30 mM) for 72 h. Number of viable cells is quantified by the tryphan blue exclusion method. Results are expressed as mean±S.E.M of three indipendent expriments. Statistical significance is set at ^ϕP<0.05 as compared to NG vs. HG and *P<0.05 as compared to HG vs. samples. […] Therefore, the molecular mechanism underlying the protective effect of ANM is explored next.
Furthermore, in FIG. 3C, to determine the effect of ANM or NAC on cell proliferation, 5×10^4 cells/well of HNDFs are incubated in a 6-well plate with ANM (10 μM) or NAC (100 μM) in the presence of HG (30 mM) for 72 h. Number of viable cells is quantified by the tryphan blue exclusion method. Results expressed as mean±S.E.M of three independent experiments. Statistical significance is set at ^ϕP<0.05 as compared to NG vs. HG and *P<0.05 as compared to HG vs. samples.
Cell proliferation is evaluated using trypan blue exclusion assay as described previously with minor modification. Cells are plated into 6-well plates at a density of 5×10^4 cells/well. After incubation overnight, cells are treated with test samples in the presence or absence of HG for 24-72 h. Cells exposed to 0.2% Trypan blue are then counted in a hemocytometer, and cells stained with Trypan blue are excluded. Percentage of viable cells is calculated based on the ratio of viable cells to total cell population in each well. The proliferation rate is calculated based on the number of viable cells in HG or sample-treated groups versus the NG-treated group.

SIRT-1 = experiment: Immunoblotting of SIRT-1 and phos-SIRT-1 in HUVECs; conditions: ANM or RES + HG
Experimental: To determine whether ANM regulates HUVEC senescence through a SIRT-1-mediated pathway, protein expression levels of SIRT-1 are examined. In FIG. 9E, protein expression levels of SIRT-1 and phos-SIRT-1 are monitored by immunoblotting.
as §1

Row | SMILES | cyclin D1, CDK4, CDK6, cyclin E and CDK2 protein levels under HG [1] | ubiquitination of total protein (Keap-1) | HG-induced reduction in cell number, control siRNA cells (HNDFs; ANM 10 μM + HG) | protection of cell number, SIRT-1 siRNA transfected cells (HNDFs; ANM 10 μM + HG) | HG-induced reduction in cell proliferation, Nrf2 knock-down cells (HNDFs; ANM + HG) | cell proliferation, Nrf2 and SIRT-1 knock-down cells (HNDFs; ANM + HG) | cell proliferation (number of viable cells) vs HG group (HNDFs; antcins 10 μM + HG 30 mM, trypan blue exclusion) | cyclin B1 and Cdc2 levels ([1]; ANM 10 μM + HG 30 mM) | protein Rb phosphorylation under HG ([1]; ANM 10 μM + HG 30 mM) | ubiquitination of Keap-1, co-incubated with HG (Keap-1; ANM + HG) | Keap-1 protein level (Keap-1; ANM alone or in HG-induced condition) | ubiquitination of Keap-1 (Keap-1; ANM alone, immunoprecipitation with anti-Keap-1) | HG-induced SIRT-1 phosphorylation at Ser47 in HUVECs (SIRT-1) | SIRT-1 expression in HUVECs under HG (SIRT-1)
1 | CC(=O)N[C@@H](CS)C(=O)O [NAC, N-acetylcysteine, reference compound] | partially rescues | significant increase | – | – | – | – | – | – | – | – | – | – | – | –
2 | C=C(CCC(C)C1CCC2C3=C(C(=O)C(O)C21C)C1(C)CCC(O)C(C)C1CC3)C(C)C(=O)O (stereo not shown) [ANM, antcin M] | upregulated | significant increase | significantly blocked | partial protection | partially inhibited | fails to rescue | two-fold increase; also recorded: increased cell proliferation | unaffected | significantly inhibits | further increase | significantly decreased | remarkable increase | significantly blocks | significantly rescues
